Usually EC50 stands for the concentration giving half of the maximal effect. What is called IC50 is the midpoint of a concentration-inhibition curve.

Some results are limits rather than exact numbers.

The nature of assay [1]: Antiproliferative activity against human SUM149PT cells after 48 hrs by alamar blue assay. Type of assay: functional, cell-based. In general terms: Alamar Blue is a resazurin reagent that responds to reducing activity.
In assay [2] the test system is MDA-MB-453 (Homo sapiens). Nature of the assay: Antiproliferative activity against human MDA-MB-453 cells after 48 hrs by alamar blue assay. The following applies: MDA-MB-453, 48 h.
The test system of a further assay is BXPC-3. Nature of the assay: Antiproliferative activity against human BxPC3 cells after 48 hrs by alamar blue assay. The class given is functional, cell-based. Conditions: BXPC-3, 48 h.
Assay [3] has as its target Casein kinase II alpha/beta (Homo sapiens, UniProt P68400). Type of assay: protein-complex assay.
Another assay deals with MV4-11. Nature of the assay: Antiproliferative activity against human MV411 cells after 48 hrs by alamar blue assay. The following applies: MV4-11, 48 h. The class given is functional, cell-based.
Assay [4] concerns the target Serine/threonine-protein kinase pim-2 (Homo sapiens, UniProt Q9P1W9). Nature of the assay: Inhibition of human recombinant Pim2 using RSRHSSYPAGT as substrate and 5 uM ATP by radiometric assay.
The target of assay [5] is Serine/threonine-protein kinase pim-1 (Homo sapiens, UniProt P11309). The assay can be described thus: Inhibition of human recombinant Pim1 using RSRHSSYPAGT as substrate and 30 uM ATP by radiometric assay.
In a further assay the test system is K562. Nature of the assay: Antiproliferative activity against human K562 cells after 48 hrs by alamar blue assay. The class given is functional, cell-based. The following applies: K562, 48 h.

Chain of Serine/threonine-protein kinase pim-1 (P11309 whole entry): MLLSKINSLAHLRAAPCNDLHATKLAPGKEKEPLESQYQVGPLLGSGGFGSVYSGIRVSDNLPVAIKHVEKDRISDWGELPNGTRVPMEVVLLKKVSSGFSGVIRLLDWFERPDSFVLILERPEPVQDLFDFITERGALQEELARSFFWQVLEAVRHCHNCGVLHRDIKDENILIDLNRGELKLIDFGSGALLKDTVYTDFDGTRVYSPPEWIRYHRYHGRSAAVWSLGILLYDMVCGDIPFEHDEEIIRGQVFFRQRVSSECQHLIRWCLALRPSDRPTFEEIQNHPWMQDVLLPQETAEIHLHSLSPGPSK
Chain of Casein kinase II alpha/beta (P67870 whole entry): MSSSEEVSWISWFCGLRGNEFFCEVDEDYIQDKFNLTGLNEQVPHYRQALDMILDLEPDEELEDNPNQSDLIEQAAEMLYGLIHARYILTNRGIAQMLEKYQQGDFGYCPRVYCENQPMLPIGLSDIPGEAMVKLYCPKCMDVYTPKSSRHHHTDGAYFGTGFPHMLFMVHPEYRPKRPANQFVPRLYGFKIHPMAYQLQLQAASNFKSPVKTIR
Chain of Casein kinase II alpha/beta (P68400 whole entry): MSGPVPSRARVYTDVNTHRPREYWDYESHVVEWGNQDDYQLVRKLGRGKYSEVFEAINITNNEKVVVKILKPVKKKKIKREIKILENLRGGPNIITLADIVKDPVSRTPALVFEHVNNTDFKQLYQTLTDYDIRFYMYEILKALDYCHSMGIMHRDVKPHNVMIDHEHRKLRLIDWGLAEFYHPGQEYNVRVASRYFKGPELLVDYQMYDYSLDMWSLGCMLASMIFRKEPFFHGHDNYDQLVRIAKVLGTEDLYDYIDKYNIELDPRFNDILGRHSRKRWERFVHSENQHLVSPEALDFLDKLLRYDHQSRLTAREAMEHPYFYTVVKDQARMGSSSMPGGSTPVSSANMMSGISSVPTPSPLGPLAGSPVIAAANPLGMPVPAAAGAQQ
Chain of Serine/threonine-protein kinase pim-2 (Q9P1W9 whole entry): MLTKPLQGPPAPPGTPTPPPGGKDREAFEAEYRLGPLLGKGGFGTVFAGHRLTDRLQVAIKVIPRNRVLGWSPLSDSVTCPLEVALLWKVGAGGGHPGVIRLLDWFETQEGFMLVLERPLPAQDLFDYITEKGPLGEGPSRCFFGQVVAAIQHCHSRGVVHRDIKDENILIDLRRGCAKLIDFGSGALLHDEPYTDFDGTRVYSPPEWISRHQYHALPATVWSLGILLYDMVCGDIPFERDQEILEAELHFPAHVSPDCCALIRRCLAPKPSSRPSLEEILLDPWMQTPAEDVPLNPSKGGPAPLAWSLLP

For the compound `c1ccc(Nc2nc3c(-c4nnc[nH]4)cccc3c3sccc23)cc1`, the concentration giving a half-maximal response (EC50) in assay [1] was 7000 nM; in assay [2], 7800 nM; in the assay on BXPC-3, above 30000 nM; in the assay with MV4-11 it was 2000 nM; with K562, 6100 nM. Also, the results for the IC50 in assay [3], in assay [4] and in assay [5] were 10 nM, 15 nM and 4 nM, respectively.
With `Fc1ccccc1Nc1nc2c(-c3nnc[nH]3)cccc2c2sccc12`, the concentration for a half-maximal effect (EC50) was 9500 nM in assay [1]; 7100 nM in assay [2]; above 30000 nM with BXPC-3; 600 nM in the assay with MV4-11; 3600 nM in the assay with K562. Further, the IC50 in assay [3] stood at 4 nM; in assay [4], 2 nM; in assay [5], 2 nM.
With `c1ccc(Nc2nc3c(-c4nnc[nH]4)cccc3c3cscc23)cc1`, the IC50 stood at 10 nM in assay [3], 17 nM in assay [4] and 27 nM in assay [5].
Regarding `c1ccc(Nc2nc3c(-c4nnc[nH]4)cccc3c3ccsc23)cc1`, the IC50 came to 30 nM in assay [3], 14 nM in assay [4] and 16 nM in assay [5].
For `Clc1ccccc1Nc1nc2c(-c3nnc[nH]3)cccc2c2scnc12`, the EC50 in assay [1] was 12600 nM; in assay [2] it was 2000 nM; in the assay on BXPC-3 it was 2800 nM; with MV4-11, 4700 nM; with K562, above 10000 nM. In addition, the concentration for half-maximal inhibition (IC50) was 39 nM in assay [3], 9 nM in assay [4] and 8 nM in assay [5].
As to `c1ccc(Nc2nc3c(-c4nnc[nH]4)cccc3n3cccc23)cc1`, the IC50 was 101 nM in assay [3], 30 nM in assay [4] and 14 nM in assay [5].
Turning to `Fc1ccccc1Nc1nc2c(-c3nnc[nH]3)cccc2n2cccc12`, the EC50 in assay [1] is 22800 nM; in assay [2], 28400 nM; with BXPC-3, above 30000 nM; with MV4-11, 3700 nM; in the assay on K562 it was 8200 nM. For the same compound, the figures for the IC50 in assay [3], in assay [4] and in assay [5] were 89 nM, 20 nM and 8 nM, respectively.
For the compound `Fc1ccccc1Nc1nc2c(-c3nnc[nH]3)cccc2n2cncc12`, the 50% effective concentration (EC50) in assay [1] was 5400 nM; in assay [2], 3100 nM; with BXPC-3, 15000 nM; with MV4-11, 100 nM; with K562, 5400 nM. The IC50 in assay [3] stood at 35 nM; in assay [4], 43 nM; in assay [5], 38 nM.
For the compound `c1cc(-c2nnc[nH]2)c2nc(NC3CC3)c3ccsc3c2c1`, the IC50 in assay [3] was 62 nM; in assay [4], 25 nM; in assay [5], 15 nM.
In the case of `c1cc(-c2nnc[nH]2)c2nc(N3CCOCC3)c3ccsc3c2c1`, the IC50 in assay [3] came to 128 nM; in assay [4], 10 nM; in assay [5], 35 nM.
Consider `c1ccc(CNc2nc3c(-c4nnc[nH]4)cccc3c3sccc23)cc1`, for which the results for the IC50 in assay [3], in assay [4] and in assay [5] were 48 nM, 52 nM and 4 nM, respectively.
With `c1cncc(Nc2nc3c(-c4nnc[nH]4)cccc3c3sccc23)c1`, the figures for the IC50 in assay [3], in assay [4] and in assay [5] were 76 nM, 22 nM and 17 nM, respectively.
Take `c1cc(-c2nnc[nH]2)c2nc(Nc3ccncc3)c3ccsc3c2c1`: the IC50 was found to be 216 nM in assay [3], 68 nM in assay [4] and 91 nM in assay [5].
`Clc1cccc(Nc2nc3c(-c4nnc[nH]4)cccc3c3sccc23)c1`: the IC50 in assay [3] was determined as 15 nM; in assay [4], 6 nM; in assay [5] it was 6 nM.
Turning to `Clc1ccc(Nc2nc3c(-c4nnc[nH]4)cccc3c3sccc23)cc1`, the IC50 in assay [3] was determined as 33 nM; in assay [4], 86 nM; in assay [5], 14 nM.
Turning to `Oc1ccc(Nc2nc3c(-c4nnc[nH]4)cccc3c3sccc23)c(Cl)c1`, the IC50 turned out to be 10 nM in assay [3], 4 nM in assay [4] and 14 nM in assay [5].
As to `Fc1ccc(Nc2nc3c(-c4nnc[nH]4)cccc3c3sccc23)c(Cl)c1`, the IC50 was 52 nM in assay [3], 9 nM in assay [4] and 9 nM in assay [5].
For `COc1cccc(Nc2nc3c(-c4nnc[nH]4)cccc3c3sccc23)c1Cl`, the values for the 50% inhibitory concentration (IC50) in assay [3], in assay [4] and in assay [5] were 17 nM, 21 nM and 5 nM, respectively.
Consider `Fc1cc(F)cc(Nc2nc3c(-c4nnc[nH]4)cccc3c3sccc23)c1`, for which the values for the IC50 in assay [3], in assay [4] and in assay [5] were 151 nM, 24 nM and 9 nM, respectively.
For the compound `FC(F)(F)Oc1ccc(Nc2nc3c(-c4nnc[nH]4)cccc3c3sccc23)c(Cl)c1`, the concentration for half-maximal inhibition (IC50) is 75 nM in assay [3], 76 nM in assay [4] and 64 nM in assay [5].
Turning to `Fc1cccc(Nc2nc3c(-c4nnc[nH]4)cccc3c3sccc23)c1`, the EC50 in assay [1] is 8100 nM; in assay [2], 2600 nM; with BXPC-3, 9100 nM; with MV4-11, 4600 nM; in the assay on K562, above 10000 nM. The IC50 in assay [3] came to 7 nM; in assay [4], 5 nM; in assay [5], 3 nM.
`Fc1ccc(Nc2nc3c(-c4nnc[nH]4)cccc3c3sccc23)cc1`: the EC50 in assay [1] was above 30000 nM; in assay [2], 6600 nM; in the assay on BXPC-3, above 30000 nM; with MV4-11 it was above 10000 nM; in the assay with K562, above 10000 nM. The IC50 in assay [3] is 7 nM; in assay [4], 7 nM; in assay [5], 4 nM.
`Fc1ccc(Nc2nc3c(-c4nnc[nH]4)cccc3c3sccc23)c(F)c1`: the half-maximal effective concentration (EC50) is above 30000 nM in assay [1]; 4600 nM in assay [2]; above 30000 nM with BXPC-3; 1700 nM in the assay with MV4-11; 4800 nM with K562. Further, the figures for the half-maximal inhibitory concentration (IC50) in assay [3], in assay [4] and in assay [5] were 11 nM, 2 nM and 2 nM, respectively.
Consider `Fc1ccc(Nc2nc3c(-c4nnc[nH]4)cccc3c3sccc23)cc1F`, for which the half-maximal inhibitory concentration (IC50) in assay [3] was found to be 77 nM; in assay [4] it was 15 nM; in assay [5] it was 9 nM.
`COc1ccccc1Nc1nc2c(-c3nnc[nH]3)cccc2c2sccc12`: the half-maximal inhibitory concentration (IC50) is 84 nM in assay [3], 49 nM in assay [4] and 7 nM in assay [5].
Turning to `COc1cccc(Nc2nc3c(-c4nnc[nH]4)cccc3c3sccc23)c1`, the IC50 in assay [3] came to 11 nM; in assay [4], 28 nM; in assay [5], 11 nM.
As to `COc1ccc(Nc2nc3c(-c4nnc[nH]4)cccc3c3sccc23)cc1`, the EC50 was 8200 nM in assay [1]; 7400 nM in assay [2]; 28000 nM in the assay with BXPC-3; 6500 nM in the assay on MV4-11; 7200 nM in the assay with K562. Further, the IC50 in assay [3] amounted to 5 nM; in assay [4], 6 nM; in assay [5] it was 4 nM.
On to `CN(C)CCOc1ccc(Nc2nc3c(-c4nnc[nH]4)cccc3c3sccc23)cc1`, for which the 50% inhibitory concentration (IC50) is 136 nM in assay [3], 34 nM in assay [4] and 16 nM in assay [5].
For the compound `FC(F)(F)c1cccc(Nc2nc3c(-c4nnc[nH]4)cccc3c3sccc23)c1`, the IC50 stood at 24 nM in assay [3], 52 nM in assay [4] and 16 nM in assay [5].
In the case of `N#Cc1cccc(Nc2nc3c(-c4nnc[nH]4)cccc3c3sccc23)c1`, the results for the IC50 in assay [3], in assay [4] and in assay [5] were 126 nM, 12 nM and 10 nM, respectively.
In the case of `C#Cc1cccc(Nc2nc3c(-c4nnc[nH]4)cccc3c3sccc23)c1`, the concentration for a half-maximal effect (EC50) in assay [1] amounted to 9600 nM; in assay [2], 9300 nM; in the assay with BXPC-3, 24600 nM; with MV4-11, 5400 nM; with K562, 6700 nM. Also, the IC50 in assay [3] is 2 nM; in assay [4], 5 nM; in assay [5], 6 nM.
With `NC(=O)c1ccc(Nc2nc3c(-c4nnc[nH]4)cccc3c3sccc23)cc1`, the concentration for half-maximal inhibition (IC50) in assay [3] was determined as 139 nM; in assay [4], 17 nM; in assay [5] it was 17 nM.
Turning to `O=C(O)c1cccc2c1nc(Nc1ccccc1Cl)c1ccsc12`, the IC50 in assay [3] was 139 nM; in assay [4], 121 nM; in assay [5] it was 69 nM.
Regarding `NC(=O)c1cccc2c1nc(Nc1ccccc1Cl)c1ccsc12`, the IC50 was 22 nM in assay [3], 12 nM in assay [4] and 5 nM in assay [5].
Taken in the same sequence, the figures for `Cc1cc2c(Nc3ccccc3F)nc3c(-c4nnc[nH]4)cccc3c2s1` were 26 nM, 6 nM and 15 nM.

The values above are taken from ChEMBL document CHEMBL2016532, “Novel potent dual inhibitors of CK2 and Pim kinases with antiproliferative activity against cancer cells” (Bioorg Med Chem Lett, 2012).
